Results as given in article PMC7411887, “New Paracyclophanylthiazoles with Anti-Leukemia Activity: Design, Synthesis, Molecular Docking, and Mechanistic Studies” (Molecules, 2020).

Assays:
[1] = system: ROS in SR cells; assay: Mitochondrial production of ROS; type: cell-based, human; details: 30 min at 37 °C
Experimental: Mitochondria play an essential role in the propagation of apoptosis. It is reported that, at an early stage, apoptotic stimuli are capable of modifying the mitochondrial transmembrane potential (Δψmt). Δψmt was recorded by the fluorescence of the dye JC-1.20. […] . The disruption of Δψmt is associated with the appearance of annexin V positivity in the treated cells when they are in an early apoptotic stage. It is documented that the dissipation of Δψmt is characteristic of apoptosis, and this was indicated with both microtubule-stabilizing and -destabilizing agents in different cell types. […] Mitochondrial membrane depolarization is associated with mitochondrial production of ROS [35]. Therefore, we investigated whether ROS production increased after treatment with the test compounds.
Figure 13 Mitochondrial production of ROS in SR cells with 3a and colchicine reference compared to control. […]
5. Adjust the cell concentration so at least 1 x10^4 cells should be analyzed per experimental condition. […] Mean fluorescence intensity in Ex/Em = 495/529 nm can be quantified and compared between untreated cells and cells treated with test compounds, or between different cell types. […]
4. For adherent cells: remove the ROS Label, add 100 μl of ROS Assay Buffer or PBS and measure fluorescence immediately, or treat the cells with 100 μL of diluted test compound(s) for desired period of time. […]

[2] = system: HCT-15; assay: NCI five-dose assay; type: cell-based; details: Colon Cancer HCT-15
[3] = system: NCI-H522; assay: NCI five-dose assay; type: cell-based; details: Non-Small-Cell Lung Cancer NCI-H522
[4] = system: NCI-H322M; assay: NCI five-dose assay; type: cell-based, human; details: Non-Small-Cell Lung Cancer NCI-H322M
[5] = system: SF-539; assay: NCI five-dose assay; type: cell-based; details: CNS Cancer SF-539
[6] = system: U251; assay: NCI five-dose assay; type: cell-based; details: CNS Cancer U251
[7] = system: T-47D; assay: NCI five-dose assay; type: cell-based; details: Breast Cancer T-47D
[8] = system: SN12C; assay: NCI five-dose assay; type: cell-based; details: Renal Cancer SN12C
[9] = system: SF-295; assay: NCI five-dose assay; type: cell-based; details: CNS Cancer SF-295
[10] = system: HOP-62; assay: NCI five-dose assay; type: cell-based, human; details: Non-Small-Cell Lung Cancer HOP-62
[11] = system: SNB-75; assay: NCI five-dose assay; type: cell-based; details: CNS Cancer SNB-75
[12] = system: K-562; assay: NCI five-dose assay; type: cell-based; details: Leukemia K-562
[13] = system: EKVX; assay: NCI five-dose assay; type: cell-based; details: Non-Small-Cell Lung Cancer EKVX
[14] = system: MOLT-4; assay: NCI five-dose assay; type: cell-based; details: Leukemia MOLT-4
[15] = system: OVCAR-4; assay: NCI five-dose assay; type: cell-based, human; details: Ovarian Cancer OVCAR-4
[16] = system: PC-3; assay: NCI five-dose assay; type: cell-based; details: Prostate Cancer PC-3
[17] = Homo sapiens, read-out: GI50 Concentration/Cell Line
[18] = Homo sapiens, read-out: LC50 (the source's name)

## COc1cc2c(c(OC)c1OC)-c1ccc(OC)c(=O)cc1[C@@H](NC(C)=O)CC2 [Colchicine, colchicine, reference compound]
[1]
  ROS % of control: 96.18%

## COC(=O)C=C1SC(=NNC(=O)c2cc3ccc2CCc2ccc(cc2)CC3)N(c2ccccc2)C1=O [Compound 3a]
[2]
  TGI Concentration/Cell Line: 4.05 µM
[2]; Homo sapiens
  LC50: 8.76 µM
[2]; [17]
  GI50: 1.87 µM
[3]; Homo sapiens
  LC50: > 100 µM
[3]; [17]
  GI50: 4.89 µM
[3]
  TGI Concentration/Cell Line: >100 µM
[4]; [17]
  GI50: 2.02 µM
[4]
  TGI Concentration/Cell Line: 4.75 µM
[5]
  TGI Concentration/Cell Line: 3.32 µM
[5]; [17]
  GI50: 1.79 µM
[5]; [18]
  CC50: 6.18 µM
[6]
  TGI Concentration/Cell Line: 4.00 µM
[6]; Homo sapiens, U-251, read-out: GI50 Concentration/Cell Line
  GI50: 1.89 µM
[6]; Homo sapiens, U-251, read-out: LC50 (the source's name)
  CC50: 8.47 µM
[7]
  TGI Concentration/Cell Line: 3.65 µM
[7]; Homo sapiens, T47D, read-out: GI50 Concentration/Cell Line
  GI50: 1.54 µM
[7]; Homo sapiens, T47D, read-out: LC50 (the source's name)
  CC50: 8.68 µM
[8]; Homo sapiens
  LC50: > 100 µM
[8]; [17]
  GI50: 2.27 µM
[8]
  TGI Concentration/Cell Line: 5.94 µM
[9]
  TGI Concentration/Cell Line: 4.19 µM
[9]; Homo sapiens
  LC50: 8.5 µM
[9]; [17]
  GI50: 2.07 µM
[10]; [17]
  GI50: 2.68 µM
[10]
  TGI Concentration/Cell Line: 6.97 µM
[11]
  TGI Concentration/Cell Line: >100 µM
[11]; Homo sapiens
  LC50: > 100 µM
[11]; [17]
  GI50: 5.44 µM
[1]
  ROS % of control: 112.10%
[12]; Homo sapiens, K562, read-out: GI50 Concentration/Cell Line
  GI50: 3.15 µM
[12]; Homo sapiens, K562, read-out: LC50 (the source's name)
  CC50: > 100 µM
[12]
  TGI Concentration/Cell Line: >100 µM
[13]; [17]
  GI50: 1.91 µM
[13]; [18]
  CC50: 9.38 µM
[13]
  TGI Concentration/Cell Line: 4.23 µM
[14]; Homo sapiens
  LC50 (concentration killing 50% of cells): > 100 µM
[14]; [17]
  GI50: 3.12 µM
[14]
  TGI Concentration/Cell Line: >100 µM
[15]; [17]
  GI50: 3.17 µM
[15]
  TGI Concentration/Cell Line: 9.88 µM
[16]; Homo sapiens
  LC50: 7.7 µM
[16]; [17]
  GI50: 1.71 µM
[16]
  TGI Concentration/Cell Line: 3.63 µM
